Source: PMC6271077, “Synthesis, Anticancer and Antibacterial Activity of Salinomycin N-Benzyl Amides” (Molecules, 2014)
Values after ≈ are worked out from the molar mass of the structure shown.

Key:
[1] = system: MRSE 489/11; test: MIC microdilution, hospital MRSE; assay type: cell-based; settings: Staphylococcus epidermidis; hospital MRSE strain 489/11; read-out: MIC
[2] = system: MRSA 462/11; test: MIC microdilution, hospital MRSA; assay type: cell-based; settings: Staphylococcus aureus; hospital MRSA strain 462/11; read-out: MIC
[3] = system: MRSE 488/11; test: MIC microdilution, hospital MRSE; assay type: cell-based; settings: Staphylococcus epidermidis; hospital MRSE strain 488/11; read-out: MIC
[4] = system: MRSA 456/11; test: MIC microdilution, hospital MRSA; assay type: cell-based; settings: Staphylococcus aureus; hospital MRSA strain 456/11; read-out: MIC
[5] = system: MRSE 467/11; test: MIC microdilution, hospital MRSE; assay type: cell-based; settings: Staphylococcus epidermidis; hospital MRSE strain 467/11; read-out: MIC
[6] = system: S. aureus ATCC 4163; test: MIC microdilution; assay type: cell-based; settings: Staphylococcus aureus, ATCC4163; S. aureus ATCC 4163; 18 h, 35 °C; read-out: MIC
[7] = system: MRSE 459/11; test: MIC microdilution, hospital MRSE; assay type: cell-based; settings: Staphylococcus epidermidis; hospital MRSE strain 459/11; read-out: MIC
[8] = system: MRSE 466/11; test: MIC microdilution, hospital MRSE; assay type: cell-based; settings: Staphylococcus epidermidis; hospital MRSE strain 466/11; read-out: MIC
[9] = system: MRSA 522/12; test: MIC microdilution, hospital MRSA; assay type: cell-based; settings: Staphylococcus aureus; hospital MRSA strain 522/12; read-out: MIC
[10] = system: MRSA 585/12; test: MIC microdilution, hospital MRSA; assay type: cell-based; settings: Staphylococcus aureus; hospital MRSA strain 585/12; read-out: MIC
[11] = system: MRSA 452/11; test: MIC microdilution, hospital MRSA; assay type: cell-based; settings: Staphylococcus aureus; hospital MRSA strain 452/11; read-out: MIC
[12] = system: MRSE 468/11; test: MIC microdilution, hospital MRSE; assay type: cell-based; settings: Staphylococcus epidermidis; hospital MRSE strain 468/11; read-out: MIC
[13] = system: MRSA; test: MIC microdilution, MRSA strains overall (range given); assay type: cell-based, Staphylococcus aureus; settings: hospital MRSA strains
[14] = system: MRSA 573/12; test: MIC microdilution, hospital MRSA; assay type: cell-based; settings: Staphylococcus aureus; hospital MRSA strain 573/12; read-out: MIC
[15] = system: MRSE 469/11; test: MIC microdilution, hospital MRSE; assay type: cell-based; settings: Staphylococcus epidermidis; hospital MRSE strain 469/11; read-out: MIC
[16] = system: MRSA 514/11; test: MIC microdilution, hospital MRSA; assay type: cell-based; settings: Staphylococcus aureus; hospital MRSA strain 514/11; read-out: MIC
[17] = system: MRSA 537/12; test: MIC microdilution, hospital MRSA; assay type: cell-based; settings: Staphylococcus aureus; hospital MRSA strain 537/12; read-out: MIC
[18] = system: MRSA 586/12; test: MIC microdilution, hospital MRSA; assay type: cell-based; settings: Staphylococcus aureus; hospital MRSA strain 586/12; read-out: MIC
[19] = system: S. aureus ATCC 29213; test: Disc-diffusion (GIZ); assay type: cell-based; settings: 18 h, 35 °C, un: unmeasurable
Description: (§1) Microorganisms used in this study were as follows: Gram-positive cocci: S. aureus NCTC 4163, S. aureus ATCC 25923, S. aureus ATCC 6538, S. aureus ATCC 29213, S. epidermidis ATCC 12228, S. epidermidis ATCC 35984, Gram-negative rods: E. coli ATCC 10538, E. coli ATCC 25922, E. coli NCTC 8196, P. vulgaris NCTC 4635, P. aeruginosa ATCC 15442, P. aeruginosa NCTC 6749, P. aeruginosa ATCC 27863, B. bronchiseptica ATCC 4617 and yeasts: C. albicans ATCC 10231, C. albicans ATCC 90028, C. parapsilosis ATCC 22019. The other microorganisms used were obtained from the collection of the Department of Pharmaceutical Microbiology, Medical University of Warsaw, Poland.
(§2) Antibacterial activity was examined by the disc-diffusion method under standard conditions using Mueller-Hinton II agar medium (Becton Dickinson, Heidelberg, Germany) according to CLSI (previously NCCLS) guidelines. Antifungal activities were assessed using Muellere Hinton agar + 2% glucose and 0.5 mg/mL Methylene Blue Dye Medium.
(§3) Sterile filter paper discs (9 mm diameter, Whatman No. 3 chromatography paper) were dripped with tested compound solutions (in EtOH) to load […] of a given compound per disc. Dry discs were placed on the surface of appropriate agar medium. The results (diameter of the growth inhibition zone, GIZ) were read after 18 h of incubation at 35 °C.

[20] = system: S. epidermidis ATCC 35984; test: Disc-diffusion (GIZ); assay type: cell-based; settings: 18 h, 35 °C, un: unmeasurable
Description: as §1, §2, §3

[21] = system: S. epidermidis ATCC 12228; test: Disc-diffusion (GIZ); assay type: cell-based; settings: 18 h, 35 °C, un: unmeasurable
Description: as §1, §2, §3

[22] = system: S. aureus ATCC 4163; test: Disc-diffusion (GIZ); assay type: cell-based; settings: 18 h, 35 °C, un: unmeasurable
Description: as §1, §2, §3

[23] = system: S. aureus ATCC 6538; test: Disc-diffusion (GIZ); assay type: cell-based; settings: 18 h, 35 °C, un: unmeasurable
Description: as §1, §2, §3

[24] = system: S. aureus ATCC 25923; test: Disc-diffusion (GIZ); assay type: cell-based; settings: 18 h, 35 °C, un: unmeasurable
Description: as §1, §2, §3

[25] = system: MRSE 461/11; test: MIC microdilution, hospital MRSE; assay type: cell-based; settings: Staphylococcus epidermidis; hospital MRSE strain 461/11; read-out: MIC
[26] = system: MRSA 572/12; test: MIC microdilution, hospital MRSA; assay type: cell-based; settings: Staphylococcus aureus; hospital MRSA strain 572/12; read-out: MIC
[27] = system: S. aureus ATCC 29213; test: MIC microdilution; assay type: cell-based; settings: Staphylococcus aureus, ATCC29213; S. aureus ATCC 29213; 18 h, 35 °C; read-out: MIC
[28] = system: S. epidermidis ATCC 12228; test: MIC microdilution; assay type: cell-based; settings: Staphylococcus epidermidis, ATCC12228; S. epidermidis ATCC 12228; 18 h, 35 °C; read-out: MIC
[29] = system: S. aureus ATCC 6538; test: MIC microdilution; assay type: cell-based; settings: Staphylococcus aureus, ATCC6538; S. aureus ATCC 6538; 18 h, 35 °C; read-out: MIC

- MIC [1]: 0.25 µg/mL (≈ 0.754 µM)
- MIC [2]: 64 µg/mL (≈ 193 µM)
- MIC [3]: 16 µg/mL (≈ 48.3 µM)
- MIC [4]: 32 µg/mL (≈ 96.6 µM)
- MIC [5]: 16 µg/mL (≈ 48.3 µM)
- MIC [6]: 0.25 µg/mL (≈ 0.754 µM)
- MIC [7]: 16 µg/mL (≈ 48.3 µM)
- MIC [8]: 2 µg/mL (≈ 6.04 µM)
- MIC [9]: 32 µg/mL (≈ 96.6 µM)
- MIC [10]: 64 µg/mL (≈ 193 µM)
- MIC [11]: 32 µg/mL (≈ 96.6 µM)
- MIC [12]: 16 µg/mL (≈ 48.3 µM)
- MIC (range over MRSA strains) [13]: 32 to 64 µg/mL
- MIC [14]: 32 µg/mL (≈ 96.6 µM)
- MIC [15]: 8 µg/mL (≈ 24.1 µM)
- MIC [16]: 32 µg/mL (≈ 96.6 µM)
- MIC [17]: 64 µg/mL (≈ 193 µM)
- MIC [18]: 64 µg/mL (≈ 193 µM)
- MIC [25]: 0.25 µg/mL (≈ 0.754 µM)
- MIC [26]: 64 µg/mL (≈ 193 µM)
- MIC [27]: 0.5 µg/mL (≈ 1.51 µM)
- MIC [28]: 0.25 µg/mL (≈ 0.754 µM)
- MIC [29]: 0.25 µg/mL (≈ 0.754 µM)
SMILES: O=C(O)c1cn(C2CC2)c2cc(N3CCNCC3)c(F)cc2c1=O [ciprofloxacin, reference compound]
- GIZ [19]: 22 mm
- GIZ [20]: 32 mm
- GIZ [21]: 30 mm
- GIZ [22]: 26 mm
- GIZ [23]: 28 mm
- GIZ [24]: 26 mm
